*: point of attachment. NHNH2 = NN*
Columns and labels:
Assay type in all cases: cell-based
Hek293 cells = experiment: RLuc pDNA delivery, robotic library screening, Hek293
A549 cells = experiment: EGFP mRNA delivery, robotic library screening, A549
In short: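 Transfection used amphiphile at final 2.5, 5 or 10 μM with EGFP mRNA (25 ng/well) for 4 h without serum, then medium with 10% FBS. Plate-reader EGFP signal at 72 h, untreated background removed, mean of triplicates.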

[1] = tested on: Hela cells expressing EGFP; experiment: Cas9-RNP delivery against EGFP (gene editing, plate reader), HeLa; settings: for % GFP silencing due to gene editing (Cas9-RNP): HeLa
In short: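 HeLa cells stably expressing EGFP were plated in 96-well plates at 50,000 cell/mL (100 μL/w) in DMEM+10% FBS+1% Gln-Abt one day ahead. Cas9-RNP targeting EGFP was premixed with amphiphile for 30 min at room temperature, applied for 4 h at 50 nM RNP, then medium was replaced; EGFP fluorescence was read on a plate reader after 72 h, in triplicate.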

[2] = Petroselinyl, 10 μM, Hela cells
[3] = Petroselinyl, 15 μM, Hela cells

Substance | mean luminescent intensity (RLuc pDNA) (Hek293 cells; Dodecanal, 5 μM) [RLU] | mean luminescent intensity (RLuc pDNA) (Hek293 cells; Dodecanal, 10 μM) [RLU] | mean luminescent intensity (RLuc pDNA) (Hek293 cells; Dodecanal, 15 μM) [RLU] | mean luminescent intensity (RLuc pDNA) (Hek293 cells; Palmitoleyl, 5 μM) [RLU] | mean luminescent intensity (RLuc pDNA) (Hek293 cells; Petroselinyl, 5 μM) [RLU] | mean luminescent intensity (RLuc pDNA) (Hek293 cells; Petroselinyl, 10 μM) [RLU] | mean fluorescence intensity (EGFP mRNA) (A549 cells; Dodecanal, 2.5 μM) | mean fluorescence intensity (EGFP mRNA) (A549 cells; Myristoleyl, 2.5 μM) | mean fluorescence intensity (EGFP mRNA) (A549 cells; Oleyl, 2.5 μM) | mean fluorescence intensity (EGFP mRNA) (A549 cells; Oleyl, 5 μM) | mean fluorescence intensity (EGFP mRNA) (A549 cells; Oleyl, 10 μM) | mean fluorescence intensity (EGFP mRNA) (A549 cells; Palmitoleyl, 2.5 μM) | mean fluorescence intensity (EGFP mRNA) (A549 cells; Palmitoleyl, 5 μM) | mean fluorescence intensity (EGFP mRNA) (A549 cells; Petroselinyl, 2.5 μM) | mean fluorescence intensity (EGFP mRNA) (A549 cells; Petroselinyl, 5 μM) | mean fluorescence intensity (EGFP mRNA) (A549 cells; Petroselinyl, 10 μM) | percentage of gene editing, GFP fluorescence intensity decrease (% of reduction) ([1]; Myristoleyl, 5 μM, HeLa cells) [%] | percentage of gene editing, GFP fluorescence intensity decrease (% of reduction) ([1]; Palmitoleyl, 5 μM, HeLa cells) [%] | percentage of gene editing, GFP fluorescence intensity decrease (% of reduction) ([1]; Palmitoleyl, 10 μM, HeLa cells) [%] | percentage of gene editing, GFP fluorescence intensity decrease (% of reduction) [1, 3] [%] | also measured
Ac-RHLK*RLK*RRLK*RL-NH2 (Ac-RHLKRLKRRLKRL-NH2; not fully specified (residues 4, 7, 11); printed as Ac-RHLK*RLK*RRLK*RL-NH2; also: linker on K* not given here) [13(Arg-His)] | 265059 | 309302 | 78888 | 280799 | 258944 | 217264 | 626 | 392 | 886 | 719 | 386 | 1177 | 348 | 652 | 306 | 151 | 48 | 48 | 73 | 80 | mean luminescent intensity (RLuc pDNA) (Hek293 cells; Palmitoleyl, 10 μM): 124471 RLU; mean luminescent intensity (RLuc pDNA) (Hek293 cells; Palmitoleyl, 15 μM): 19968 RLU; mean luminescent intensity (RLuc pDNA) (Hek293 cells; Petroselinyl, 15 μM): 101890 RLU; mean fluorescence intensity (EGFP mRNA) (A549 cells; Palmitoleyl, 10 μM): 437; percentage of gene editing, GFP fluorescence intensity decrease (% of reduction) ([1]; Dodecanal, 5 μM, Hela cells): 37%; percentage of gene editing, GFP fluorescence intensity decrease (% of reduction) ([1]; Dodecanal, 10 μM, HeLa cells): 78%; % GFP silencing due to gene editing (Cas9-RNP) ([1]; 5 μM, Ole tail): 73%; % GFP silencing due to gene editing (Cas9-RNP) ([1]; 5 μM, Pal tail): 73%; percentage of gene editing, GFP fluorescence intensity decrease (% of reduction) ([1]; Myristoleyl, 10 μM, HeLa cells): 85%; percentage of gene editing, GFP fluorescence intensity decrease (% of reduction) ([1]; Oleyl, 5 μM, HeLa cells): 46%; percentage of gene editing, GFP fluorescence intensity decrease (% of reduction) ([1]; Oleyl, 10 μM, HeLa cells): 73%; percentage of gene editing, GFP fluorescence intensity decrease (% of reduction) ([1]; Palmitoleyl, 15 μM, Hela cells): 78%; percentage of gene editing, GFP fluorescence intensity decrease (% of reduction) ([1]; Petroselinyl, 5 μM, HeLa cells): 23%; percentage of gene editing, GFP fluorescence intensity decrease (% of reduction) [1, 2]: 69%
Ac-RK*LRK*K*L-NH2 (Ac-RK(NHNH2)LRK(NHNH2)K(NHNH2)L-NH2; not fully specified; printed as Ac-RK*LRK*K*L-NH2; also: K*2,K*5,K*6: native or modified lysine (ε-amide to a linker)) [Peptide 7.3] |  | 11481 | 13690 | 2088 | 7479 | 2932 | 2894 | 4491 | 218 | 1205 | 1046 | 2134 | 3484 | 1317 | 6947 | 641 | 24 | 20 | 13 | 33 | mean luminescent intensity (RLuc pDNA) (Hek293 cells; Myristoleyl, 5 μM): 94318 RLU; mean luminescent intensity (RLuc pDNA) (Hek293 cells; Myristoleyl, 10 μM): 179823 RLU; mean fluorescence intensity (EGFP mRNA) (A549 cells; Dodecanal, 5 μM): 4662; mean fluorescence intensity (EGFP mRNA) (A549 cells; Dodecanal, 10 μM): 248; mean fluorescence intensity (EGFP mRNA) (A549 cells; Myristoleyl, 5 μM): 5378; mean fluorescence intensity (EGFP mRNA) (A549 cells; Myristoleyl, 10 μM): 228; percentage of gene editing, GFP fluorescence intensity decrease (% of reduction) ([1]; Dodecanal, 5 μM, Hela cells): 10%; percentage of gene editing, GFP fluorescence intensity decrease (% of reduction) ([1]; Dodecanal, 10 μM, HeLa cells): 2%; percentage of gene editing, GFP fluorescence intensity decrease (% of reduction) ([1]; Dodecanal, 15 μM, Hela cells): −3%; percentage of gene editing, GFP fluorescence intensity decrease (% of reduction) ([1]; Myristoleyl, 10 μM, HeLa cells): 27%; percentage of gene editing, GFP fluorescence intensity decrease (% of reduction) ([1]; Myristoleyl, 15 μM, Hela cells): 25%; percentage of gene editing, GFP fluorescence intensity decrease (% of reduction) ([1]; Oleyl, 10 μM, HeLa cells): −9%; percentage of gene editing, GFP fluorescence intensity decrease (% of reduction) ([1]; Petroselinyl, 5 μM, HeLa cells): 6%; percentage of gene editing, GFP fluorescence intensity decrease (% of reduction) [1, 2]: 11%
Ac-RRLK*RLK*RRLK*RL-NH2 [Peptide 13.3] | 295675 |  |  |  |  |  | 298 |  | 214 |  |  |  |  | 245 | 117 | 107 | 29 | 18 | 68 | 85 | mean luminescent intensity (RLuc pDNA) (Hek293 cells; Myristoleyl, 5 μM): 368875 RLU; mean fluorescence intensity (EGFP mRNA) (A549 cells; Myristoleyl, 5 μM): 170; mean fluorescence intensity (EGFP mRNA) (A549 cells; Myristoleyl, 10 μM): 240; % GFP silencing due to gene editing (Cas9-RNP) ([1]; 5 μM, Ole tail): 76%; % GFP silencing due to gene editing (Cas9-RNP) ([1]; 5 μM, Pal tail): 68%; % GFP silencing due to gene editing (Cas9-RNP) ([1]; 5 μM, Pet tail): 63%; percentage of gene editing, GFP fluorescence intensity decrease (% of reduction) ([1]; Myristoleyl, 15 μM, Hela cells): 86%; percentage of gene editing, GFP fluorescence intensity decrease (% of reduction) ([1]; Palmitoleyl, 15 μM, Hela cells): 80%
